Columns and labels:
open-field (OF) test = format: in vivo, rat
Description: Open-field (OF) test: The OF apparatus is a plexiglass open-topped chamber (91.5×91.5×30.5 cm), filmed by a ceiling-mounted CCD camera and illuminated by a 25 W red light bulb placed 2 meters above the center of the chamber. […] The automated tracking system ANY-MAZE (ANY-MAZE, Stoelting Co., Wood Dale, IL, USA) was utilized to measure total distance traveled and mean speed.

GIRK1-S65Y with GIRK4 = target: T1, GIRK1-S65Y with GIRK4 (Homo sapiens, UniProt P48544+P48549, S65Y); experiment: 5-ptaseOCRL current inhibition, GIRK1/4 channels containing GIRK1-S65Y subunits; format: cell-based
T1 construct: expressed in transfected cells; host or cells: HEK293-T cells
T1 sequence (P48549 1-501 S65Y): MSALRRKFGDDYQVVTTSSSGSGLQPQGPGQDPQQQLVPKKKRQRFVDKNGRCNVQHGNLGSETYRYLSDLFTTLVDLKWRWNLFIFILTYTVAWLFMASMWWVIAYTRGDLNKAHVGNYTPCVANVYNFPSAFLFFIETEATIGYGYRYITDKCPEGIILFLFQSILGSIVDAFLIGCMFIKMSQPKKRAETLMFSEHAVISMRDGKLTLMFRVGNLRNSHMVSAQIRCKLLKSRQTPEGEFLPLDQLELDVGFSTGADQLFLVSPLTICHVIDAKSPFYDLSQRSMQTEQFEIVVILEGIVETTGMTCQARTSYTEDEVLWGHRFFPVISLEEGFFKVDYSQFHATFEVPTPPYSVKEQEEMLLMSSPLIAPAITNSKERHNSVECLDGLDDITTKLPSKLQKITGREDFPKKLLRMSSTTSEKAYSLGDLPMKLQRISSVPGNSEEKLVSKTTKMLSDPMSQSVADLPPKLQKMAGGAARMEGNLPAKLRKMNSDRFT
T1 sequence (P48544 1-419): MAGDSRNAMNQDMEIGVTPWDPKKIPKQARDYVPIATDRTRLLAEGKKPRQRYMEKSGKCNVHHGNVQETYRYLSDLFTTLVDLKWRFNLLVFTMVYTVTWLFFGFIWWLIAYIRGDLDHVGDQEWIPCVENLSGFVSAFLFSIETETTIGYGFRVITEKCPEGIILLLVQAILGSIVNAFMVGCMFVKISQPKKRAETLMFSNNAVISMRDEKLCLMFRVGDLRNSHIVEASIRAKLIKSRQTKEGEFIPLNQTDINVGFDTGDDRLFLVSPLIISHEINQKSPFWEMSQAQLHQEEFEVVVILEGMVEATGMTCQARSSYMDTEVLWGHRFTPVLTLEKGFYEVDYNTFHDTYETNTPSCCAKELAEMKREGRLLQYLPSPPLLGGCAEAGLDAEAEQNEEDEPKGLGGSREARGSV
Description: To identify changes in specific channel residue interactions with PIP2 upon ligand binding, the inventors carried out Principal Component Analysis (PCA) in the presence and absence of ML297 and GAT1508. The PCA analysis implicated changes in the slide (or interfacial) helix interactions with PIP2 upon ligand binding. Polar interactions could be formed between GIRK2^FD(Y76) and GIRK4^FD(Y71) with the P(4,5) of PIP2 when ML297 was bound to the same subunit (FIG. 39 top, FIG. 40). In contrast, when GAT1508 was bound this interaction was retained by GIRK2^FD but not GIRK4^FD (FIG. 39 bottom, FIG. 40). The corresponding GIRK1(S65) residue (FIG. 41, highlighted with vertical rectangle) could be serving the same role in stabilizing the phosphoinositol headgroup for interactions with non-ligand binding subunits. As polar residues, both Ser and Tyr could form H-bond interactions with PIP2. […]
Patch-clamp recording: Whole-cell currents were recorded with an Axopatch 200B amplifier (Molecular Devices) controlled via a USB-interface (National Instruments) using WinWCP software (University of Strathclyde). […] The barium-sensitive component of the current, observed when cells were perfused with the high-K^+ buffer, was analyzed and was determined by perfusing 5 mM BaCl2 in the high-K^+ buffer at the end of each experiment. […]

[1] = 30 and 60 mg/kg, 30 min after treatment

Compound	mean speed in the OF test (in words) (open-field (OF) test; 10 and 30 mg/kg i.p.)	total distance travelled in the OF test (in words) (open-field (OF) test; 10 and 30 mg/kg i.p.)	τ of current-inhibition (in words) (GIRK1-S65Y with GIRK4)	mean speed in the open arena (in words) (open-field (OF) test; [1])	total distance traveled in the open arena (in words) (open-field (OF) test; [1])
Cc1cc(NC(=O)Nc2ccc(Br)s2)n(-c2ccccc2)n1 [GAT1508, 1-(5-bromothiophen-2-yl)-3-(3-methyl-1-phenyl-1H-pyrazol-5-yl)urea]	comparable to the vehicle group	comparable to the vehicle group	not statistically increased	–	–
Cc1cc(NC(=O)Nc2ccc(F)c(F)c2)n(-c2ccccc2)n1 [ML297, reference compound]	–	–	not statistically increased	comparable to the vehicle group	comparable to the vehicle group

— US12351574B2, “Selective ligands for modulation of GIRK channels” (Northeastern University, priority 2018, dated 2025)
